Earlier results in patent US20130224131A1, “4-AMIDINO BENZYLAMINES FOR COSMETIC AND/OR DERMATOLOGICAL USE” (DSM IP ASSETS B.V., priority 2007, published 2013).

Target: urokinase (Homo sapiens, UniProt P00749)
Details: qualitative statement, described in WO 01/96286

Row | Structure (SMILES) | urokinase-inhibiting activity
1 | N=C(N)c1ccc(CNC(=O)CNC(=O)[C@@H](CO)NS(=O)(=O)Cc2ccccc2)cc1 [benzylsulfonyl-D-Ser-Gly-4-amidino-benzylamide] | potent and highly specific urokinase-inhibiting activity
2 | N=C(N)c1ccc(CNC(=O)[C@H](CCCCN)NC(=O)[C@@H](CO)NS(=O)(=O)Cc2ccccc2)cc1 [benzylsulfonyl-D-Ser-Lys-(4-amidino-benzylamide)] | potent and highly specific urokinase-inhibiting activity
3 | N=C(N)c1ccc(CNC(=O)C(CCc2ccccc2)NC(=O)[C@@H](CO)NS(=O)(=O)Cc2ccccc2)cc1 (stereo partly drawn) [benzylsulfonyl-D-Ser-homoPhe-(4-amidino-benzylamide)] | potent and highly specific urokinase-inhibiting activity
